Assays:
CYP3A4 = experiment: clinical; details: human, plasma, oral; for AUC: geometric mean
BCRP = target: T1, BCRP (Homo sapiens, UniProt Q9UNQ0); experiment: DDI perpetrator study: rosuvastatin probe; format: in vivo; details: human, plasma, oral, 10 mg; for AUC: rosuvastatin, probe alone (day 1), geometric mean
T1 sequence (Q9UNQ0 1-655): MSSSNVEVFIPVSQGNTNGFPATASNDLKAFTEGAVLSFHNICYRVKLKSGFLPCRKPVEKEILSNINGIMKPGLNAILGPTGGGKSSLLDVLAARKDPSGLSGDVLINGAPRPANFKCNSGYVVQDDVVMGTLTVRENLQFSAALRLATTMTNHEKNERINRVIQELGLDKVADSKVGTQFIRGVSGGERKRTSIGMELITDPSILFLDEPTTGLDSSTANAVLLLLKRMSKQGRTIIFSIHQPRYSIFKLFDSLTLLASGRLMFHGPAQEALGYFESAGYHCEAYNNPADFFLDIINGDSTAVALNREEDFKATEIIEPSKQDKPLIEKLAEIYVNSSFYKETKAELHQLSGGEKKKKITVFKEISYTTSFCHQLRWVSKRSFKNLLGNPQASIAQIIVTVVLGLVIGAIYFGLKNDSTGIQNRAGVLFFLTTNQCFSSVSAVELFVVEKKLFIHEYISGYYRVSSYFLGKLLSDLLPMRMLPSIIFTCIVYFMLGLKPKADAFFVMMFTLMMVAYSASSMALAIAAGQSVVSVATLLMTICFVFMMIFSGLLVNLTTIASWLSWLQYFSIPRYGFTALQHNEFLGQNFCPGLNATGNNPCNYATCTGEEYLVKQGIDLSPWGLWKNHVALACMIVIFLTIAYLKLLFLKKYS

UGT1A1 = target: T2, UGT1A1 (Homo sapiens, UniProt P22309); experiment: DDI perpetrator study: dolutegravir probe; format: in vivo; details: human, plasma, oral, 50 mg; for AUC: dolutegravir, probe alone (day 1), geometric mean
T2 sequence (P22309 26-533): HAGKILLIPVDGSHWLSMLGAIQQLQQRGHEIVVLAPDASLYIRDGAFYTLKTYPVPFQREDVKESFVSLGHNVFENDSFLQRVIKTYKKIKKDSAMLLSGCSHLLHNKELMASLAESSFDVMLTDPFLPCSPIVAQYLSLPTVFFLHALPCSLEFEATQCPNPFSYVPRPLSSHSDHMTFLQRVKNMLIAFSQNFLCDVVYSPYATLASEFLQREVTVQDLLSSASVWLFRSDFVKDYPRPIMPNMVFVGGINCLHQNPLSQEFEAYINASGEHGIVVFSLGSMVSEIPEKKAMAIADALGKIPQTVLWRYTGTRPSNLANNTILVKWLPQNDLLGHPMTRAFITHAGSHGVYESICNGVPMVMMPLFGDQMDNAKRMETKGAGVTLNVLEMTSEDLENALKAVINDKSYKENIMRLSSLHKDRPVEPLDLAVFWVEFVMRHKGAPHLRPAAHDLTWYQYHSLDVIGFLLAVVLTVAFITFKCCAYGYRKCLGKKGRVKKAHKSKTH

CYP2C8 = target: T3, CYP2C8 (Homo sapiens, UniProt P10632); experiment: DDI perpetrator study: repaglinide probe; format: in vivo; details: human, plasma, oral, 0.5 mg; for AUC: repaglinide, probe alone (day 1), geometric mean
T3 sequence (P10632 1-490): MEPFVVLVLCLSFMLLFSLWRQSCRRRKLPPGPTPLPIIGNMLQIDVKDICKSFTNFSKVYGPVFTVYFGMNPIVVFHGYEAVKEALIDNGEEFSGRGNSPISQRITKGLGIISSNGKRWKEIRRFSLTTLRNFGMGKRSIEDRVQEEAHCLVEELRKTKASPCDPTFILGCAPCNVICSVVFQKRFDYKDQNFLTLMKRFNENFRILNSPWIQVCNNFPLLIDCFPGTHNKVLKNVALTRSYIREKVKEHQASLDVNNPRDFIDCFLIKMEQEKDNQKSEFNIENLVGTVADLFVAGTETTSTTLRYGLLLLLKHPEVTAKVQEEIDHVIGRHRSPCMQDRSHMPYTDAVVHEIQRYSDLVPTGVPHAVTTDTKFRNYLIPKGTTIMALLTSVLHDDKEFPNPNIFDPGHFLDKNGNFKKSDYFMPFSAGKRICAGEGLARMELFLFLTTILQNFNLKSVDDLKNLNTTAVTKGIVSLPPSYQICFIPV

Cc1ncc2n1-c1ccc(Cl)cc1C(c1ccccc1F)=NC2 [Midazolam]
Cmax (CYP3A4; 2.5 mg): 8.42 ng/mL
AUC (CYP3A4; 2.5 mg, AUC0‐inf, midazolam, probe alone (day 1)): 39.5 ng·h/mL
AUC (CYP3A4; 2.5 mg, AUC0‐last, midazolam, probe alone (day 1)): 37.5 ng·h/mL
AUC (CYP3A4; AUC0‐inf, midazolam + miricorilant (day 10)): 34.7 ng·h/mL

CC(C)c1nc(N(C)S(C)(=O)=O)nc(-c2ccc(F)cc2)c1/C=C/[C@@H](O)C[C@@H](O)CC(=O)O [Rosuvastatin]
Cmax (BCRP): 2.35 ng/mL
AUC (BCRP; AUC0‐inf): 20.7 ng·h/mL
AUC (BCRP; AUC0‐last): 17.1 ng·h/mL

C[C@@H]1CCO[C@H]2Cn3cc(C(=O)NCc4ccc(F)cc4F)c(=O)c(O)c3C(=O)N12 [Dolutegravir]
Cmax (UGT1A1): 2590 ng/mL
AUC (UGT1A1; AUC0‐inf): 46300 ng·h/mL
AUC (UGT1A1; AUC0‐last): 44600 ng·h/mL

CCOc1cc(CC(=O)N[C@@H](CC(C)C)c2ccccc2N2CCCCC2)ccc1C(=O)O [Repaglinide]
Cmax (CYP2C8): 2.94 ng/mL
AUC (CYP2C8; AUC0‐inf): 7.27 ng·h/mL
AUC (CYP2C8; AUC0‐last): 6.68 ng·h/mL
